Laboratory results taken from article PMC11031820, “Structural determinants of the direct inhibition of GIRK channels by Sigma-1 receptor antagonist” (The Journal of Biological Chemistry, 2024).

Legend:
Assay type in all cases: cell-based
[1] = biological target: T1, GIRK2 (Mus musculus, UniProt P48542); test: two-electrode voltage clamp in Xenopus oocytes, GIRK2+Gβγ, […] compound
T1 construct: gene Kcnj6

[2] = biological target: T2, GIRK4 (Rattus norvegicus, UniProt P48548); test: two-electrode voltage clamp in Xenopus oocytes, GIRK4+Gβγ, […] compound
T2 construct: gene Kcnj5

[3] = biological target: T2, GIRK4; test: two-electrode voltage clamp in Xenopus oocytes, homomeric GIRK4 co-expressed with Gβγ
[4] = biological target: T3, GIRK2 (Mus musculus, UniProt P48542, I82L); test: two-electrode voltage clamp in Xenopus oocytes, […] compound
T3 construct: gene Kcnj6

[5] = biological target: T1, GIRK2; test: two-electrode voltage clamp in Xenopus oocytes, homomeric GIRK2 co-expressed with Gβγ
[6] = biological target: T4, GIRK4 (Rattus norvegicus, UniProt P48548, E147Q); test: two-electrode voltage clamp in Xenopus oocytes, […] compound
T4 construct: gene Kcnj5
T4 sequence (P48548 whole entry E147Q): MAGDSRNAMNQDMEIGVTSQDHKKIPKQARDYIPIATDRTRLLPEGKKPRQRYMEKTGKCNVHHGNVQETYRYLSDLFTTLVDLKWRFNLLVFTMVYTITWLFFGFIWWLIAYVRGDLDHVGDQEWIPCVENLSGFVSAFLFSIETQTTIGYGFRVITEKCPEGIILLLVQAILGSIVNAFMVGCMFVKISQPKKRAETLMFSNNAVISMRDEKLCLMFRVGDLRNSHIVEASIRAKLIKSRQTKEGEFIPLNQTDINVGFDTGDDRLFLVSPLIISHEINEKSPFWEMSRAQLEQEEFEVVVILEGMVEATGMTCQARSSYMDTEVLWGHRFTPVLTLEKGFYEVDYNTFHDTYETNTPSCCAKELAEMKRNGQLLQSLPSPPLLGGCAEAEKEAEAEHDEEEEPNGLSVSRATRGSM
T4 sequence (P62871 2-340 partner): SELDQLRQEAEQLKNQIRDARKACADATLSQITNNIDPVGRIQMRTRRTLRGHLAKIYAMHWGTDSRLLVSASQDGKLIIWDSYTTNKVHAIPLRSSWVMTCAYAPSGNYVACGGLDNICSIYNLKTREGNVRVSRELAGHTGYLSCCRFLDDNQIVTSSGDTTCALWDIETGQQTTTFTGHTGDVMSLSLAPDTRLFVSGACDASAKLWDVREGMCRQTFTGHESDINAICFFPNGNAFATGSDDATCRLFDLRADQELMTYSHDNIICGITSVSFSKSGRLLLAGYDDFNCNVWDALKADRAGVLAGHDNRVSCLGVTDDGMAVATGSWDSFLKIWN
T4 sequence (P63212 2-68 partner): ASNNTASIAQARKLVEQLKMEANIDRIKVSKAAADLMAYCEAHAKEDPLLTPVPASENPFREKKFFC

T2 sequence (P48548 whole entry): as the sequence (P48548 whole entry E147Q) above, with Q147E counted along it
T2 sequence (P62871 2-340 partner): as the sequence (P62871 2-340 partner) above
T2 sequence (P63212 2-68 partner): as the sequence (P63212 2-68 partner) above
T1 sequence (P48542 whole entry): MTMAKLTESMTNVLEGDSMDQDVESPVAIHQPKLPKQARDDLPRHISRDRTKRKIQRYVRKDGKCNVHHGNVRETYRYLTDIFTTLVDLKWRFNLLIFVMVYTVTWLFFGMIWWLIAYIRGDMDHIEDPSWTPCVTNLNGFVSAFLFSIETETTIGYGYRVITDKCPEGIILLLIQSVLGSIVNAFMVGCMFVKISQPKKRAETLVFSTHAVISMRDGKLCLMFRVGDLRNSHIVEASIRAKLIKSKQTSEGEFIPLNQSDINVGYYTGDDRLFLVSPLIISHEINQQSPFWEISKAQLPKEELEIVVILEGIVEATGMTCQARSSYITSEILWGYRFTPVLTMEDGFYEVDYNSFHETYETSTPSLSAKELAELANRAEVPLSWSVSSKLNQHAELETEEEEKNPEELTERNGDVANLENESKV
T1 sequence (P62871 2-340 partner): as the sequence (P62871 2-340 partner) above
T1 sequence (P63212 2-68 partner): as the sequence (P63212 2-68 partner) above
T3 sequence (P48542 whole entry I82L): as the sequence (P48542 whole entry) above, with I82L counted along it
T3 sequence (P62871 2-340 partner): as the sequence (P62871 2-340 partner) above
T3 sequence (P63212 2-68 partner): as the sequence (P63212 2-68 partner) above

| inhibition at 100 µM [1] | inhibition at 100 µM [2] | SMILES | IC50 [3] | inhibition at 100 µM [4] | IC50 [5] | two-electrode voltage clamp in Xenopus oocytes, 100 μM compound [6] |
| --- | --- | --- | --- | --- | --- | --- |
| 31.1 ± 12% | 61.4 ± 2.6% | CN1CCN(CCc2ccc(Cl)c(Cl)c2)CC1 [BD1063] | – | – | – | – |
| – | – | CN(C)CCN(C)CCc1ccc(Cl)c(Cl)c1 [BD1047] | 17.4 ± 3.7 µM | 61 ± 1.9% | 75.4 ± 9.7 µM | It was observed that GIRK4 E147Q maintained the strong inhibition as WT |
